Measured values taken from ChEMBL document CHEMBL5150030, “Enhancing the Safety and Efficacy of PSMA-Based Small-Molecule Drug Conjugates by Linker Stabilization and Conjugation to Transthyretin Binding Ligand” (J Med Chem, 2022).
pIC50, pKd: −log10 of the molar value. Active and inactive are the calls of the source. The rule behind the calls is not given here. Square brackets hold non-standard residues; d marks the D form. Peptide text beside a SMILES is read from it. * marks the point of attachment. Dolaproine = CO[C@@H]([C@@H]1CCCN1)[C@@H](C)C(=O)O; Dil = CC[C@H](C)[C@H](NC)[C@@H](CC(=O)O)OC; X1 = C[C@@H](N*)[C@@H](O)c1ccccc1; NMeV = CN[C@H](C(=O)O)C(C)C

How the values were obtained:
[1] = Stability of compound in PBS at 37 degreeC incubated for 24 hrs by RP-HPLC analysis; format: physicochemical; settings: buffer
[2] = Stability of compound in human serum at 37 degreeC incubated for 24 hrs by RP-HPLC analysis; format: ADME, cell-free
[3] = Stability of compound in mouse serum at 37 degreeC incubated for 24 hrs by RP-HPLC analysis; format: ADME, cell-free; settings: read-out: Stability
[4] = Toxicity in CD-1 mouse assessed as body weight loss at 2.5 mg/kg,ip administrated upto 20 days for every 5 days; format: organism-based; settings: in vivo, 480 h, time < 20 day
[5] = Drug concentration in CD-1 mouse at 2.5 mg/kg,ip measured upto 24 hrs by LC-MS/MS analysis; format: ADME, organism-based; settings: in vivo
[6] = Drug metabolism in human liver assessed as cathepsin B mediated hydrolysis MMAE metabolite formation measured after 15 mins by HPLC/LC-MS/MS analysis; format: ADME, tissue-based; settings: 0.25 h
LNCaP [7] = assay: Cytotoxicity against human LNCaP cells assessed as reduction in cell viability incubated for 72 hrs by CellTiter-96 assay; format: functional, cell-based
LNCaP [8] = assay: Cytotoxicity against human LNCaP cells assessed as reduction in cell viability incubated for 72 hrs in presence of TTR by CellTiter-96 assay; format: functional, cell-based
DU-145 [9] = assay: Cytotoxicity against human DU-145 cells assessed as reduction in cell viability incubated for 72 hrs by CellTiter-96 assay; format: functional, cell-based; settings: DU-145, 72 h
DU-145 [10] = assay: Cytotoxicity against human DU-145 cells assessed as reduction in cell viability incubated for 72 hrs in presence of TTR by CellTiter-96 assay; format: functional, cell-based; settings: DU-145, 72 h
HeLa [11] = assay: Cytotoxicity against human HeLa cells assessed as reduction in cell viability incubated for 72 hrs by CellTiter-96 assay; format: functional, cell-based
HeLa [12] = assay: Cytotoxicity against human HeLa cells assessed as reduction in cell viability incubated for 72 hrs in presence of TTR by CellTiter-96 assay; format: functional, cell-based
[13] = Toxicity in mouse assessed as increase in body weight at 6.2 mg/kg,ip measured upto 21 days for every 3 days; format: organism-based; settings: in vivo, 504 h, time < 21 day
[14] = Toxicity in mouse assessed as maximum tolerated dose administered intraperitoneally measured upto 21 days for every 3 days; settings: in vivo, route ip, time < 21 day
[15] = Toxicity in mouse assessed as reduction in body weight at 20 mg/kg,ip measured for 21 days by every 3 days; format: organism-based; settings: in vivo, 504 h, time 21 day
[16] = Toxicity in mouse assessed as reduction in body weight at 40 mg/kg,ip measured upto 21 days for every 3 days; format: organism-based; settings: in vivo, 504 h, time < 21 day
[17] = Toxicity in mouse xenografted with human LNCaP cells assessed as change in body weight at 10 mg/kg,ip administrated upto 35 days for every 5 days; format: organism-based; settings: in vivo, 840 h, time < 35 day
[18] = Drug concentration in CD-1 mouse at 3 mg/kg,ip measured upto 24 hrs by LC-MS/MS analysis; format: ADME, organism-based; settings: in vivo
[19] = target: Transthyretin (Mus musculus) (UniProt P07309); assay: Binding affinity to mouse serum TTR assessed as target occupancy incubated for 1 hrs by fluorescence polarization assay
Transthyretin [20] = target: T1, Transthyretin (Homo sapiens, UniProt P02766); assay: Binding affinity to human serum TTR assessed as target occupancy incubated for 6 hrs by fluorescence polarization assay
Transthyretin [21] = target: T1, Transthyretin; assay: Binding affinity to human TTR incubated for 20 mins by fluorescence polarization assay
[22] = Toxicity in CD-1 mouse assessed as body weight loss at 3.1 mg/kg,ip administrated upto 20 days for every 5 days; format: organism-based; settings: in vivo, 480 h, time < 20 day
[23] = Drug metabolism in human liver assessed as cathepsin B mediated hydrolysis MMAE metabolite formation measured after 30 mins by HPLC/LC-MS/MS analysis; format: ADME, tissue-based; settings: 0.5 h
LNCaP [24] = assay: Antitumor activity against human LNCaP cells xenografted mouse assessed as reduction in tumor growth at 3.1 mg/kg,ip administrated upto 35 days for every 5 days; format: functional, organism-based; settings: time <= 35.0 day
[25] = Toxicity in mouse xenografted with human LNCaP cells assessed as increase in body weight at 3.1 mg/kg,ip administrated upto 35 days for every 5 days; format: organism-based; settings: in vivo, 840 h, time < 35 day
[26] = Toxicity in mouse xenografted with human LNCaP cells assessed as mouse survival time at 3.1 mg/kg,ip administrated upto 35 days for every 5 days; format: organism-based; settings: in vivo, 840 h, time < 35 day
LNCaP [27] = assay: Antitumor activity against human LNCaP cells xenografted mouse assessed as reduction in tumor relapse at 3.1 mg/kg,ip administrated upto 35 days for every 5 days; format: functional, organism-based; settings: time <= 35.0 day
[28] = Toxicity in CD-1 mouse assessed as body weight loss at 0.4 mg/kg,ip administrated upto 20 days for every 5 days; format: organism-based; settings: in vivo, 480 h, time < 20 day

| SMILES | Stability [1] | Stability [2] | remaining at 24 h [3] [%] | pIC50 (LNCaP [7]) | pIC50 (LNCaP [8]) | pIC50 (DU-145 [9]) | pIC50 (DU-145 [10]) | pIC50 (HeLa [11]) | pIC50 (HeLa [12]) | MTD at 504 h [14] [mg/kg] | Activity (Transthyretin [20]) [%] | pKd (Transthyretin [21]) | other results |
| --- | --- | --- | --- | --- | --- | --- | --- | --- | --- | --- | --- | --- | --- |
| C#CCC(NC(=O)CCSC1CC(=O)N(CCCCCC(=O)N[C@@H](CCC(=O)O)C(=O)N[C@H](C(=O)N[C@@H](CCCNC(N)=O)C(=O)Nc2ccc(COC(=O)N(C)[C@H](C(=O)N[C@H](C(=O)N(C)[C@@H]([C@@H](C)CC)[C@@H](CC(=O)N3CCC[C@H]3[C@H](OC)[C@@H](C)C(=O)N[C@H](C)[C@@H](O)c3ccccc3)OC)C(C)C)C(C)C)cc2)C(C)C)C1=O)C(=O)NCCCCCC(=O)NCCCC[C@H](NC(=O)N[C@@H](CCC(=O)O)C(=O)O)C(=O)O (some centres not stated) | Stable | Stable | 64.1 | 9.08 | 9.09 | 5.98 | 5.99 | 6.26 | 6.28 | 5 |  |  | Activity [4]: Non-Toxic; Drug uptake [5]: Active; Drug metabolism [6]: Metabolite_Detected; Activity [13]: Toxic |
| CC(=O)O[C@@]12CO[C@@H]1C[C@H](O)[C@@]1(C)C(=O)[C@H](O)C3=C(C)[C@@H](OC(=O)[C@H](O)[C@@H](NC(=O)OC(C)(C)C)c4ccccc4)C[C@@](O)([C@@H](OC(=O)c4ccccc4)[C@H]21)C3(C)C [DOCETAXEL ANHYDROUS] |  |  |  |  |  |  |  |  |  |  |  |  | Activity [15]: Toxic; Activity [16]: Toxic; Activity [17]: Non-Toxic |
| CC[C@H](C)[C@@H]([C@@H](CC(=O)N1CCC[C@H]1[C@H](OC)[C@@H](C)C(=O)N[C@H](C)[C@@H](O)c1ccccc1)OC)N(C)C(=O)[C@@H](NC(=O)[C@H](C(C)C)N(C)C(=O)OCc1ccc(NC(=O)[C@H](CCCNC(N)=O)NC(=O)[C@@H](NC(=O)[C@H](CCC(=O)O)NC(=O)CCCCCN2C(=O)CC(SCCC(=O)NC(Cc3cn(CCOCCOCCNCCCCCCOc4cc(OCCCc5c(C)n[nH]c5C)cc(C(=O)O)c4)nn3)C(=O)NCCCCCC(=O)NCCCC[C@H](NC(=O)N[C@@H](CCC(=O)O)C(=O)O)C(=O)O)C2=O)C(C)C)cc1)C(C)C (some centres not stated) | Stable | Stable | 71.3 | 8.99 | 8.92 | 6.38 | 5.90 | 6.59 | 6.09 | 3.1 | 67.5 | 6.35 | Drug uptake [18]: Active; Activity [19]: Active; Activity [22]: Non-Toxic; Drug metabolism [23]: Metabolite_Detected; Activity (LNCaP [24]): Active; Activity [25]: Toxic; Survival [26]: 100 days; Activity (LNCaP [27]): Active |
| Cc1n[nH]c(C)c1CCCOc1cc(OCCCCCCNCCOCCOCCN=[N+]=[N-])cc(C(=O)O)c1 |  |  |  |  |  |  |  |  |  |  | 80.7 | 7.13 |  |
| CC[C@H](C)[C@@H]([C@@H](CC(=O)N1CCC[C@H]1[C@H](OC)[C@@H](C)C(=O)N[C@H](C)[C@@H](O)c1ccccc1)OC)N(C)C(=O)[C@@H](NC(=O)[C@@H](NC)C(C)C)C(C)C (H-[NMeV]V[Dil][Dolaproine]-X1) |  |  |  | 9.10 | 9.15 | 9.26 | 9.21 | 8.96 | 9.00 |  |  |  | Activity [28]: Toxic |
| O=C(O)c1ccc2nc(-c3cc(Cl)cc(Cl)c3)oc2c1 |  |  |  |  |  |  |  |  |  |  | 49.5 |  |  |
